Experimental data: PubChem BioAssay (NCI)
Several values for one entry are separate records, joined by “and”; a condition that tells them apart may be missing. Equal values may be shown once.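 The compound was tested at five concentrations on cells cultured in 96-well plates, with a 48-hour exposure period. At the GI50, growth is halved. TGI denotes the concentration required for complete inhibition of growth.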

Legend:
Assay in all cases: NCI tumour cell line growth inhibition, 48 h
RXF-631 renal = test system: RXF-631 renal
M19-MEL melanoma = test system: M19-MEL melanoma
XF 498 CNS = test system: XF 498 CNS
SNB-78 CNS = test system: SNB-78 CNS
DMS 273 small cell lung = test system: DMS 273 small cell lung
HOP-18 NSCLC = test system: HOP-18 NSCLC
DLD-1 colon = test system: DLD-1 colon
LXFL 529 NSCLC = test system: LXFL 529 NSCLC
MDA-N = test system: MDA-N
P388 leukemia = test system: P388 leukemia
P388/ADR leukemia = test system: P388/ADR leukemia
SN12K1 renal = test system: SN12K1 renal

Row | SMILES | TGI (RXF-631 renal) [µM] | TGI (M19-MEL melanoma) | TGI (XF 498 CNS) | TGI (SNB-78 CNS) | TGI (DMS 273 small cell lung) | TGI (HOP-18 NSCLC) | TGI (DLD-1 colon) | TGI (LXFL 529 NSCLC) [µM] | also measured
1 | COc1cc([C@@H]2OC(=O)C3C2C(=O)O[C@H]3c2cc(OC)c(OC)c(OC)c2)cc(OC)c1OC (some centres not stated) | > 100 | > 100 µM | > 100 µM | > 100 µM | > 100 µM | > 100 µM | – | – | –
2 | N#CC(C#N)=C1SCC(=O)CS1 | > 100 | > 100 µM | > 100 µM | > 100 µM | > 100 µM | – | > 100 µM | > 100 | –
3 | CCOC(=O)NC(=O)c1cn(CCN2CCN(C(=O)NCCCCCCNC(=O)N3CCN(CCn4cc(C(=O)NC(=O)OCC)c(=O)n(CCN(CC)CC)c4=O)CC3)CC2)c(=O)n(CCC(CC)CC)c1=O | – | > 100 µM | – | > 100 µM | > 100 µM | > 100 µM | > 100 µM | > 100 | –
4 | C[CH2][Sn]([Cl])([Cl])[CH2]C | – | > 67.2 µM | – | 46.4 µM | > 100 µM | 55.4 µM | > 100 µM | 25.2 | GI50 (DLD-1 colon): 36 µM; GI50 (M19-MEL melanoma): 26 µM; GI50 (SNB-78 CNS): 20.3 µM; GI50 (LXFL 529 NSCLC): 12.5 µM; GI50 (DMS 273 small cell lung): > 91.2 µM; GI50 (HOP-18 NSCLC): 27 µM
5 | C=C(C)[C@H](O)C(O)CC(C)[C@@H]1CCC23CC12CCC1[C@@]2(C)CCC(OC(C)=O)C(C)(C)C2CC(OC2OC(COC(C)=O)C(O)C(O)C2O)[C@]13C (some centres not stated) | 12 | 10.7 µM | – | 14.2 µM | 11.4 µM | 15.2 µM | 11.2 µM | 10.9 | –
6 | O=C1CCCC1NC(=O)C(F)(F)F (configuration not stated) | – | > 100 µM | > 100 µM | > 100 µM | > 100 µM | – | > 100 µM | > 100 | –
7 | Clc1nc(Cl)c(Cc2ccccc2)c(Cl)n1 | – | – | – | – | – | – | – | – | TGI (MDA-N): 12.5 µM
8 | CNc1nc(N(C)C)nc(N(C)C)n1 | – | > 100 µM and 3950 µM | > 100 µM and 1720 µM | > 100 µM and 5300 µM | > 100 µM and 2740 µM | > 100 µM and 3780 µM | > 100 µM and 4160 µM | > 100 | TGI (P388 leukemia): 1530 µM; GI50 (DLD-1 colon): > 100 µM and 822 µM; GI50 (M19-MEL melanoma): > 100 µM and 2040 µM; GI50 (XF 498 CNS): > 100 µM and 538 µM; TGI (MDA-N): 2850 µM; TGI (P388/ADR leukemia): 1800 µM; GI50 (SNB-78 CNS): > 100 µM and 1780 µM; TGI (SN12K1 renal): 2620 µM; GI50 (DMS 273 small cell lung): > 100 µM and 1230 µM; GI50 (HOP-18 NSCLC): > 100 µM and 1130 µM
9 | Clc1ccc(SCCCCCCCCCCSc2ccc(Cl)cc2)cc1 | – | > 100 µM | > 100 µM | > 100 µM | > 100 µM | > 100 µM | > 100 µM | > 100 | –
10 | O=P1(O)c2ccccc2Nc2cc(C(F)(F)F)ccc21 | – | > 100 µM | > 100 µM | > 100 µM | > 100 µM | > 100 µM | > 100 µM | > 100 | TGI (MDA-N): > 100 µM
11 | c1ccc(SC(CCCCOC2CCCCO2)Sc2ccccc2)cc1 (configuration not stated) | – | > 100 µM | > 100 µM | > 100 µM | > 100 µM | – | > 100 µM | > 100 | –
12 | COc1cc(-c2oc3c(OC)c(O)c(OC)c(O)c3c(=O)c2OC)ccc1O | – | – | – | – | – | – | – | – | TGI (MDA-N): > 100 µM
13 | Cc1cccc2c1C(=O)OC2(C)c1cccc2ccccc12 (configuration not stated) | – | > 100 µM | 86 µM | > 100 µM | – | > 100 µM | > 100 µM | – | –
14 | CC(=O)c1c[nH]cc1CO | – | – | – | – | – | – | – | – | TGI (MDA-N): > 10 µM
15 | COc1ccc2c(c1)CC1c3c(cc4c(c3-2)OCO4)CCN1C (configuration not stated) | 73.6 | 45.2 µM | 74 µM | > 100 µM | > 100 µM | 82.7 µM | > 100 µM | > 100 | –
16 | C=CCN=C1NC(=O)C(CC(=O)Nc2ccc(C)cc2)S1 (configuration not stated) | > 100 | > 100 µM | > 100 µM | – | > 100 µM | > 100 µM | > 100 µM | > 100 | –
17 | Cc1cccc2c1C/C(=C1\CCc3c(C)cccc31)C2=O | > 100 | > 100 µM | – | – | > 100 µM | > 100 µM | > 100 µM | > 100 | –
18 | O=C(N/C(=C\c1ccc(Oc2ccc(Cl)c(Cl)c2)cc1)c1nc2ccccc2[nH]1)c1ccccc1 | – | 94 µM | 34.6 µM | 54.8 µM | 53.9 µM | – | 42.9 µM | 32.3 | –
19 | NC(CCSC(F)F)C(=O)O (configuration not stated) | – | > 100 µM | > 100 µM | > 100 µM | > 100 µM | – | > 100 µM | > 100 | –
20 | CCOc1ccccc1NC(=O)C1=C(C)NC(C)=C(C(=O)Nc2ccccc2OCC)C1c1ccc(NC(C)=O)cc1 | – | > 100 µM | 43.5 µM | > 100 µM | – | – | > 100 µM | > 100 | –
21 | O=C1C(=O)c2ccccc2C(O)=C1CCCCCCCCC1CCCCC1 | – | – | – | – | – | – | – | – | TGI (MDA-N): 17.9 µM

Row | SMILES | TGI (RXF-631 renal) [µM] | TGI (M19-MEL melanoma) | TGI (XF 498 CNS) | TGI (SNB-78 CNS) | TGI (DMS 273 small cell lung) | TGI (HOP-18 NSCLC) | TGI (DLD-1 colon) | TGI (LXFL 529 NSCLC) [µM] | also measured
22 | CC1=Nn2c(nnc2-c2ccc(N)cc2)NC(C)(C)C1 | > 100 | > 100 µM | > 100 µM | > 100 µM | > 100 µM | > 100 µM | > 100 µM | > 100 | –
23 | C[C@@H]1C[C@@]2(O[C@@H]2C)C(=O)O[C@@H]2CCN3CC=C(COC(=O)[C@]1(C)O)[C@H]23 | – | – | – | – | – | – | – | – | TGI (MDA-N): > 100 µM
24 | COc1cc(/C=C2/C(=O)NC(Cc3cc(OC)c(OC)c(C)c3OC)C(=O)N2Cc2ccccc2)c(OC)c(C)c1OC (configuration not stated) | > 100 | > 100 µM | – | – | > 100 µM | 80.4 µM | > 100 µM | > 100 | –
25 | Cc1cc(=O)oc2cc(OCc3nc4ccccc4c(=O)[nH]3)ccc12 | – | > 100 µM | > 100 µM | – | > 100 µM | > 100 µM | > 100 µM | > 100 | –
26 | COc1cc2cccc(NC(=O)c3cc(OC)c(OC)c(OC)c3Br)c2cc1OC | – | 32.5 µM | 7.37 µM | 49 µM | – | 74.4 µM | > 100 µM | 10.9 | –
27 | CS/C(c1ccccc1)=[N+](/C)[O-] | > 100 | > 100 µM | > 100 µM | > 100 µM | – | > 100 µM | > 100 µM | > 100 | –
28 | O=C1C[C@H]2CC3(CC[C@H]2CN1)OCCO3 | – | > 100 µM | > 100 µM | > 100 µM | > 100 µM | – | > 100 µM | > 100 | –
29 | O=C(CN1C(=O)c2ccccc2C1=O)C(O)CN1C(=O)c2ccccc2C1=O (configuration not stated) | – | – | – | – | – | – | – | – | TGI (MDA-N): > 100 µM
30 | Cc1ccc(C2=C(c3ccccc3)C(Br)(c3ccccc3)C(c3ccccc3)=C2c2ccc(C)cc2)cc1 | – | > 100 µM | > 100 µM | > 100 µM | – | > 100 µM | > 100 µM | > 100 | –
31 | C/C=C/C=C\C1OC(O)([C@H](CC)C(=O)NC/C=C/C=C(\C)[C@H](OC)C(C)C2OC(\C=C/C=C/C=C(\C)C(=O)c3c(O)ccn(C)c3=O)[C@H](O)[C@@H]2O)C(O)C(O)C1(C)C (some centres not stated) | – | – | – | – | – | – | – | – | TGI (MDA-N): > 100 µM
32 | COC(=O)C(CC(=O)Nc1ccc(Cl)c(Cl)c1)C(=O)C(=O)NC1C2CC3CC(C2)CC1C3 (configuration not stated) | – | > 100 µM | – | > 100 µM | > 100 µM | > 100 µM | – | > 100 | –
33 | Cn1c(=O)c(C(=O)NC(=O)OCc2ccccc2)cn(CCSCCOC(=O)NCCCCCCNC(=O)OCCSCCn2cc(C(=O)NC(=O)OCc3ccccc3)c(=O)n(C)c2=O)c1=O | > 100 | > 100 µM | 57.6 µM | > 100 µM | > 100 µM | – | > 100 µM | > 100 | –
34 | CC(C)CCc1c(Cl)nc(Cl)nc1Cl | – | – | – | – | – | – | – | – | TGI (MDA-N): 21.4 µM
35 | Cc1ccc(N2C(=O)/C(=C/c3ccc(N(CCC#N)CCC#N)cc3C)N=C2c2cc([N+](=O)[O-])ccc2Cl)cc1 | > 100 | > 100 µM | – | > 100 µM | > 100 µM | > 100 µM | > 100 µM | > 100 | –
36 | C[CH2][Sn]([CH2]C)([O]C(=O)c1cccc(F)c1)[O][Sn]([CH2]C)([CH2]C)[O]C(=O)c1cccc(F)c1 | – | 31.9 µM | 29.8 µM | 35.1 µM | > 100 µM | 32.5 µM | 26.1 µM | 22.4 | GI50 (DLD-1 colon): 12.5 µM; GI50 (M19-MEL melanoma): 16.8 µM; GI50 (XF 498 CNS): 16.2 µM; GI50 (SNB-78 CNS): 16.3 µM; GI50 (LXFL 529 NSCLC): 10.4 µM; GI50 (DMS 273 small cell lung): 32 µM; GI50 (HOP-18 NSCLC): 18.5 µM
37 | Cc1ccc(/C=C2\CCCC\C2=N\O)cc1 | – | > 100 µM | > 100 µM | > 100 µM | > 100 µM | > 100 µM | > 100 µM | > 100 | –
38 | CC12CC3CC(C1)CC(N=[N+]=[N-])(C3)C2 | > 100 | > 100 µM | > 100 µM | > 100 µM | > 100 µM | > 100 µM | > 100 µM | > 100 | –
39 | CCOC1C=CCCO1 (configuration not stated) | – | – | – | – | – | – | – | – | TGI (MDA-N): > 100 µM
40 | O=C(/C=C1/NC(=O)CS1)Nc1ccccc1 | > 100 | > 100 µM | > 100 µM | > 100 µM | > 100 µM | > 100 µM | > 100 µM | > 100 | –
41 | O=C1C[C@@H]2CCCC[C@@H]2C12SCCS2 | > 100 | > 100 µM | > 100 µM | > 100 µM | > 100 µM | – | > 100 µM | > 100 | –
